We go through 7 molecules from patent publication US6262083A, “Genipin derivative having liver protection activity” (priority 1997, dated 2001).

The structures appear in SMILES notation. Read-outs that look alike come from different tables or passages of the source.

One data set has as its system liver cells. In words: liver protection effect in carbon tetrachloride / D-galactosamine model, serum ALT (GPT) or AST in rats, oral for 4 days. As to conditions: 100 mg/kg, p.o. The class given is in vivo. The procedure: The efficacy of compounds of formulas (I)a, (I)b, (I)c and (I)d was measured according to the method of carbon tetrachloride model [referred to: Philippe letteron et al., Biochemical Pharmacology, 39, 12, 2027~2034, 1990] and D-galactosamine model [referred to: Koji Hase et al., Biol. Pharm. Bull., 20, 4, 381~385, 1997].
Carbon tetrachloride and D-galactosamine are known as the compounds inducing the severe damage to liver cells, because carbon tetrachloride suppresses the biosysthesis of protein in the liver and induces the necrosis of liver cells, and D-galactosamine also induces the necrosis of liver cells by changing the structure of liver cell membranes.
In the present invention, the compounds of formulas (I)a, (I)b, (I)c and (I)d were orally administered to the rats as experimental animals for 4 days, and then the liver protection effect was examined by measuring the serum ALT or AST values in the experimental animals (referred to: Biol. Prarm. Bull., 20, 4, 38 1~385, 1997; Toxicology and Applied Pharmacology, 95, 1~11, 1988).
Following is calculation formula to evaluate liver protection properties of compounds of formulas (I)a, (I)b, (I)c and (I)d; [formula]
the control group means the group to which carbon tetrachloride or D-galactosamine is administered and the liver cells are impaired;
the normal group means the group to which normal solution is administered.
The liver protection effects of compounds of formulas (I)a, (I)b, (I)c and (I)d are shown to following Table 1 in comparison with known liver protection compound silimarin.

The subject of data set [1] is HBV. In words: inhibitory effect on HBV replication in 2.2.15 cell culture. Type of data set: cell-based. The settings on record: for EC50: Hepatitis B virus, 216 h, read-out: ED50 (inhibitory effect on HBV replication); for SI (selectivity Index, IC50/ED50): cytotoxicity IC50 / anti-HBV ED50, 2.2.15 cell. The procedure: Test for identifying the anti HBV effect of the compound of the present invention was carried out according to a known assay method (see, Korba and Milman, Antiviral Res., 15, 217, 1991). The assay procedure is briefly described in the following.
2.2.15. cell was cultured and preserved in RPM 11640 culture medium containing 5% fetal bovine serum (FBS), 2 mM glutamine and 50 μg/ml gentamicin sulfate. Resistance to G418 of the cell culture and degree of Mycoplasma contamination were examined according to conventional methods.
Cells (1×10^4 /cm^2) were inoculated into a multi-well tissue culture plate, confluently cultured for 7 days, and then kept for 2 or 3 days in confluent condition to stabilize the HBV DNA level. Then, culture medium was replaced 24 hours before cells were exposed to test compound. During the treatment of 9 days, culture medium was replaced and then test compound was added to the fresh culture medium at intervals of 24 hours. Culture medium was collected immediately before the first introduction of test compound, and after 3, 6, 9 days, respectively, and stored at -70° C. before HBV DNA analysis. Then, cytolysis was carried out to analyze the intracellular HBV DNA.
To analyze the extracellular HBV DNA, 0.2 ml of culture medium was incubated in 1M NaOH/10×SSC (1×SSC=0.15M NaCl/0.015M sodium citrate, pH 7.2) for 20 minutes at 25° C. and then immediately applied to a nitrocellulose membrane presoaked in 20×SSC using a slot blot apparatus. The sample was washed twice with 0.5 ml of 1M Tris/2M NaCl (pH 7.2) and once with 0.5 ml of 20×SSC to neutralize, and then it was washed again with 2×SSC and heated at […] for one hour under vacuum. Generally, the cells which have been cultured and preserved in a dish having a diameter of 10 cm are dissolved in 6 ml of lysis buffer, and the […] DNA is prepared according to the method of Korba et al., 1991.
10 μg/lane of cellular DNA sample was digested with restriction enzyme Hind III. Then, the digested sample was applied to 1% agarose gel electrophoresis and transferred to a nitrocellulose membrane.
3.2 kb HBV DNA fragment obtained by EcoR I-digestion and purification was labeled with [^32 P]dCTP using nick translation method. This labeled fragment was used as a hybridization probe. Condition for hybridization and post-washing were controlled by referring to the method of Korba et al., 1991 and HBV nucleic acid content among test sample was determined by Ambis beta scanner. The relative radioactivity of ^32 P hybridized to the test sample was compared with that of ^32 P hybridized to the standard amount of HBV DNA which was applied to each nitrocellulose membrane filter (gel or slot blot). From the calibration curve, the amount of HBV DNA corresponding to the relative cpm value was calculated.
Since the content of intracellular and extracellular HBV DNA has some inherent variations, only inhibition greater than 3.5-fold in the case of HBV virion DNA or 3.0-fold in the case of HBV DNA replication intermediates form the average level of HBV DNA formed in the untreated cell were considered to be statistically significant (P<0.05) in the present experiment. The lever of HBV DNA integrated during each cellular DNA preparation (which remains constant per cell in the present experiment) was used to calculate the level of intracellular HBV DNA formed, thereby the technical variations inherent in the blot hybridization analysis can be eliminated. Typical values for extracellular HBV virion DNA in the untreated cells ranged from 50 to 150 pg/ml culture medium with an average value of about 75 pg/ml. Intracellular HBV DNA replication intermediates (RI) in the untreated cells ranged form 50 to 100 pg/μg cellular DNA with an average value of about 74 pg/μg. […]

In another data set the test system is ICR mouse. Nature of the data set: acute toxicity in ICR mouse. The class given is in vivo. As to the method:
(§1) On the other hand, the acute toxicity of compounds of formulas (I)a, (I)b, (I)c and (I)d is measured using mouse according to the standard of drug toxicity test. The mouse is selected from the 4 weeks old ICR mouse and each dosage of 250 mg/kg, 500 mg/kg, 1,000 mg/kg and 2,000 mg/kg compounds of formulas (I)a, (I)b, (I)c and (I)d are administered after suspending the compounds in the corn oil.

The nature of data set [2]: acute toxicity in ICR mouse. Type of data set: in vivo. As to conditions: mouse, in vivo, read-out: Lethal ratio (%). The procedure: as §1
The nature of data set [3]: cytotoxicity test, neutral red dye uptake method. The class given is cell-based. As to conditions: human, 2.2.15 cells, 2.2.15 cell culture, A510, read-out: IC50 (cytotoxicity). The procedure:
Cytotoxivity test was carried out in order to determine whether the antiviral effect of the compound according to the present invention is due to the general influence on cell growth or not. In the present experiment, neutral red dye uptake method was used. This is a standard method widely utilized for examining cell survival, by which the variety of relations between viruses such as HSV or HIV and host organism can be understood.
Cytotoxicity test was performed on a 96-well tissue culture plate. Cells were cultured and treated with test compounds in the same manner as Biological Example 1, and the experiments at 4-kind concentrations were repeated threetimes, respectively. Since the relative toxicity can be determined form the uptake level of neutral red dye, quantitative analysis was carried out using the absorbance of internalized dye at 510 nm (A510).

For data set [4] the following is noted: cited from earlier work; for in vivo activities: in words.
For data set [5], the system named is HBV. The settings on record: Korean Patent Laid-open No. 94-1886; cited from earlier work.
[6] abbreviates: 2.2.15 cell culture, 9 days treatment.

Consider `COC(=O)C1=CO[C@@H](OCc2ccccc2)[C@@H]2C(CN=[N+]=[N-])=CC[C@H]12` [Compound (I)a, methyl (7R,3aS,7aS)-1-azidomethyl-7-benzyloxy-3,7,3a,7a-tetrahydro-6-oxaindene-4-carboxylate], for which the “Liver protection effect (GPT, %)” value in the data set on liver cells is recorded as 65%. Further, the EC50 with HBV [1] (setting [6]) was found to be 80 µM. The “SI (selectivity Index, IC50/ED50)” value in the data set on HBV [1] was 4.5. For the same molecule, the “Number of dead animals/Number of administered animals” value with ICR mouse (250 mg/kg), in the data set on ICR mouse (1000 mg/kg) and in the data set on ICR mouse (2000 mg/kg) was 0/5 throughout. The mortality in data set [2] (250 mg/kg), in data set [2] (500 mg/kg), in data set [2] (1000 mg/kg) and in data set [2] (2000 mg/kg) was 0% each time. Moreover, the CC50 at 216 h in data set [3] worked out at 120 µM.
Regarding `COC(=O)C1=CO[C@H](OCc2ccccc2)[C@H]2[C@@H]1CC1OC(C)(C)OC12CNC(=O)Nc1cccnc1` (stereo partly drawn) [Compound (I)d, methyl (1S,8S,12S)-2-[(3-pyridyl)ureido]methyl-4,4-dimethyl-3,5,11-trioxa-12-benzyloxy-tricyclo[6.4.0.0<2,6>]dodec-9-en-9-carboxylate], the “Liver protection effect (GPT, %)” value in the data set with liver cells stood at 74%. Moreover, in the data set on HBV [1] (setting [6]), the EC50 was 20 µM. In addition, the “SI (selectivity Index, IC50/ED50)” value in the data set with HBV [1] stood at 2.5. Also, the “Number of dead animals/Number of administered animals” value with ICR mouse (250 mg/kg), in the data set with ICR mouse (500 mg/kg), in the data set with ICR mouse (1000 mg/kg) and with ICR mouse (2000 mg/kg) was 0/5 throughout. Also, the mortality in data set [2] (250 mg/kg), in data set [2] (500 mg/kg), in data set [2] (1000 mg/kg) and in data set [2] (2000 mg/kg) was 0% each time. The CC50 at 216 h in data set [3] was found to be 70 µM.
Take `COC(=O)C1=CO[C@@H]2O[C@H](OC)[C@@H]3CC[C@H]1[C@H]23` [Compound (I)b, (2S,2aR,4aS,7aR,7bS)-2-methoxy-5-methoxycarbonyl-2a,3,4,4a,7a,7b-hexa-hydro-2H-1,7-dioxacyclopent[c.d]indene]: the “Liver protection effect (GPT, %)” value in the data set with liver cells stood at 57%. The EC50 in the data set on HBV [1] (setting [6]) was determined as 40 µM. In the data set on HBV [1], the “SI (selectivity Index, IC50/ED50)” value is 3.0. Moreover, the “Number of dead animals/Number of administered animals” value in the data set on ICR mouse (250 mg/kg), with ICR mouse (500 mg/kg), in the data set with ICR mouse (1000 mg/kg) and with ICR mouse (2000 mg/kg) was 0/5 in each case. Also, the mortality in data set [2] (250 mg/kg), in data set [2] (500 mg/kg), in data set [2] (1000 mg/kg) and in data set [2] (2000 mg/kg) was 0% throughout. In data set [3], the CC50 at 216 h stood at 90 µM.
`Nc1ccn([C@H]2CC[C@@H](CO)O2)c(=O)n1` [ddC, dideoxy cytidine, reference compound]: in the data set with HBV [1], the EC50 worked out at 15 µM and the “SI (selectivity Index, IC50/ED50)” value is listed as > 2.0. For the same molecule, in data set [3], the CC50 at 216 h was > 30 µM.
For the molecule `COC(=O)C1=CO[C@@H](OCc2ccccc2)[C@@H]2C(/C=N/OC(C)(C)C)=CC[C@H]12` [Compound (I)c, methyl (1S,5R,6S)-5-benzyloxy-7-(t-buthoxyiminomethyl)-4-oxa-bicyclo [4.3.0]nona-2,7-dien-2-carboxylate], the “Liver protection effect (GPT, %)” value in the data set with liver cells turned out to be 64%. Besides, in the data set with HBV [1] (setting [6]), the EC50 turned out to be 30 µM. Also, the “SI (selectivity Index, IC50/ED50)” value in the data set on HBV [1] was found to be 5.7. The “Number of dead animals/Number of administered animals” value with ICR mouse (250 mg/kg), with ICR mouse (500 mg/kg), in the data set on ICR mouse (1000 mg/kg) and with ICR mouse (2000 mg/kg) was 0/5 throughout. In addition, the mortality in data set [2] (250 mg/kg), in data set [2] (500 mg/kg), in data set [2] (1000 mg/kg) and in data set [2] (2000 mg/kg) was 0% each time. The CC50 at 216 h in data set [3] stood at 180 µM.
Turning to `COC(=O)C1=CO[C@@H](O)[C@@H]2C(CO)=CC[C@H]12` [genipin], the anti-tumor effect result in data set [4] (Japanese Patent Laid-open No. 80/164625) is listed as “effective as an anti-tumor agent”. The in vivo activities entry in data set [4] is “liver-protection, inhibition of biosynthesis of RNA and protein, detoxification as well as antiviral activity”. Besides, in the data set with HBV [5], the HBV replication entry is given as “inhibit the HBV replication”.
As for `OCC1=C[C@@H](O)[C@@H]2C=CO[C@@H](O[C@@H]3O[C@H](CO)[C@@H](O)[C@H](O)[C@H]3O)[C@H]12` [aucubin], the in vivo activities entry in data set [4] was “liver-protection, inhibition of biosynthesis of RNA and protein, detoxification as well as antiviral activity”. In the data set on HBV [5], the HBV replication result is recorded as “inhibit the HBV replication”.
